# Results from patent publication US9468643B2, “PDE5 inhibitor compositions and methods for immunotherapy” (The Johns Hopkins University, priority 2005, dated 2016).
# Entries after “also recorded” stand apart in the source; their conditions may differ. Where two headings read alike, the source gives them in different places.
# Assays:
# [1] = system: CT26-WT or C26GM colon carcinoma; assay: Tumor outgrowth after s.c. challenge with CT26-WT or C26GM; assay type: in vivo, mice (BALB/c); settings: for anti-tumor efficacy in immune deficient Rag-/- mice: BALB/c Rag-/- mice; for tumor outgrowth: Balb/c mice, CT26-WT or C26GM, sildenafil 20 mg/kg/day, tadalafil 2 mg/kg/day ip, treatment alone
# [2] = human, in vivo, cited from earlier work
# [3] = system: tumor-associated MSCs (CD11b+ cells); assay: In vivo sildenafil treatment of tumor-bearing mice; analysis of purified tumor-associated CD11b+ MSCs (cGMP EIA, Western blot, NO, arginase, IL4Rα flow cytometry); parameters: species or system mice (BALB/c); settings: sildenafil 20 mg/kg/day in vivo
# purified CD11b+ MSCs = assay: IL4Rα expression on purified CD11b+ MSCs cultured with sildenafil; assay type: cell-based, mice; settings: for IL4Rα expression in cultured MSCs: sildenafil 50 μg/ml in culture; for IFN-γ mediated IL4Rα up-regulation in cultured MSCs: sildenafil 50 μg/ml, IFN-γ 25 ng/ml added on day 2
# [4] = system: PBLs (CD4+ and CD8+ T cells); assay: Proliferation assay of PBLs stimulated with anti-CD3/CD28 antibody-coated beads; assay type: cell-based, human
# C26GM colon carcinoma [5] = assay: Adoptive cell transfer (ACT) with sildenafil in C26GM-bearing mice, tumor size; assay type: in vivo, mice (BALB/c)
# [6] = system: tumor-derived CD11b+ MSCs / antigen-specific T cells; assay: MSC suppressive assay (CFSE dilution of antigen-specific T cells admixed with CD11b+ MSCs); assay type: cell-based, mice; settings: sildenafil 50 μg/ml
# [7] = system: tumor infiltrating CD8+ / CD4+ T cells; assay: Tumor-infiltrating lymphocyte number and activation in sildenafil-treated tumor-bearing mice; assay type: in vivo, mice (BALB/c)
# C26GM colon carcinoma [8] = assay: C26GM tumor outgrowth with sildenafil and anti-CD8 depleting antibody; assay type: in vivo, mice (BALB/c)
# tumor = settings: cited from earlier work; for anti-tumor efficacy as single agent: used alone; for efficacy of antitumor vaccines when used as adjuvant: with vaccines
structure (smiles),measurement,setting,value
CN1CC(=O)N2[C@H](c3ccc4c(c3)OCO4)c3[nH]c4ccccc4c3C[C@@H]2C1=O [tadalafil],anti-tumor efficacy in immune deficient Rag-/- mice,[1],lack of anti-tumor efficacy
same,tumor outgrowth,[1],significantly delayed tumor outgrowth
same,apparent oral clearance (CL/F),[2]; po,2.48 L/h
same,time of peak plasma concentration post-dose,[2]; po,two
same,mean elimination half-life,[2],about 17.5 h
CCCc1nn(C)c2c(=O)[nH]c(-c3cc(S(=O)(=O)N4CCN(C)CC4)ccc3OCC)nc12 [sildenafil],NO production by intratumoral MSCs,[3]; NO3-NO2 in supernatant,lower NO production
same,NOS2 expression in intratumoral MSCs,[3]; Western blot,down-regulation of NOS2
same,Arg-1 expression and activity in intratumoral MSCs,[3]; Western blot and arginase assay,down-regulated Arg-1
same,intracellular cGMP levels in intratumoral MSCs,"[3]; competitive enzyme immune assay, vs control group",higher intracellular cGMP levels than the control group
same,intracellular cGMP in the non-MSC population,[3]; data not shown,No significant differences
same,IL4Rα expression on intratumoral MSCs,[3]; flow cytometry,significantly reduced IL4Rα expression
same,IL4Rα expression in cultured MSCs,purified CD11b+ MSCs,significantly reduced
same,IL4Rα expression in cultured MSCs,purified CD11b+ MSCs; listed as Sildenafil,down-regulates IL4Rα in cultured MSCs
same,IFN-γ mediated IL4Rα up-regulation in cultured MSCs,purified CD11b+ MSCs,significantly reduced
same,IFN-γ mediated IL4Rα up-regulation in cultured MSCs,purified CD11b+ MSCs; listed as Sildenafil,prevents IFN-γ mediated IL4Rα up-regulation
same,proliferation of isolated CD3+ T cells,[4]; data not shown,unable to increase T cell proliferation
same,CD4+ and CD8+ proliferation of PBLs from head and neck cancer and multiple myeloma patients,"[4]; sildenafil 50 μg/ml, 5 days",restore CD3/CD28-stimulated proliferation of PBLs; also recorded: significantly restored CD4^+ and CD8^+ proliferation in all the examined patients
same,proliferation of PBLs from healthy donors,"[4]; sildenafil 50 μg/ml, 5 days",no effect on PBLs from healthy donors
same,"tumor outgrowth, sildenafil without adoptive transfer",C26GM colon carcinoma [5]; sildenafil 20 mg/kg/day in drinking water,statistically significant reduction in tumor outgrowth
same,"anti-tumor efficacy, sildenafil coupled with adoptive immunotherapy (ACT)",C26GM colon carcinoma [5]; sildenafil 20 mg/kg/day plus 20×10^6 C26GM-primed splenocytes,greatest anti-tumor efficacy
same,proliferation (responsiveness) of HA-specific CD4+ and CD8+ T cells in presence of tumor-derived MSCs,"[6]; BALB/c, C26GM-derived CD11b+ MSCs",almost completely restored
same,suppression of OVA-specific CD4+ T cells by MSCs from NOS2+/+ mice,"[6]; C57Bl/6 NOS2+/+, B16GM melanoma",reversed MSC suppression
same,responsiveness of OVA-specific CD4+ T cells with MSCs from NOS2-/- mice,"[6]; C57Bl/6 NOS2-/-, B16GM melanoma",did not augment T cell responsiveness
same,T cell function in the groups lacking CD11b cells,[6]; no MSCs added,absence of a sildenafil-mediated enhancement in T cell function
same,IL-2 production (GFP) by adoptively transferred vaccine-primed CD8+ T cells in the tumor,"[7]; BALB/c-IL-2p/GFP splenocytes, sildenafil for 9 days",activated in the tumor microenvironment only with PDE5 inhibition
same,CD4+ T cell tumor infiltration,"[7]; C26GM, day 9, flow cytometry",no increase in CD4^+ T cells
same,CD8+ T cell tumor infiltration,"[7]; C26GM, day 9, flow cytometry",increase in intratumoral CD8^+ T cell infiltration
same,activation of tumor-infiltrating CD8+ T cells (CD69 and CD25),"[7]; C26GM, day 9, flow cytometry",increased the percentage of activated T cells; also recorded: significantly activated the tumor-infiltrating CD8^+ T cells
same,CD8+ T cell tumor infiltration,"[7]; C26GM, day 9, flow cytometry, listed as Sildenafil",greater CD8^+ tumor infiltration
same,intratumoral cellular infiltration (hematoxylin-eosin staining),"[7]; CT26WT, day 15, sildenafil 20 mg/kg/day, vs untreated controls",greater intratumoral cellular infiltration
same,tumor-infiltrating CD8+ cells specific for AH1 (tetramer positive),"[7]; sildenafil-treated group, n=3, untreated 1.19±1.180",9.08%±0.905
same,anti-tumor efficacy in immune deficient Rag-/- mice,[1],lack of anti-tumor efficacy
same,tumor outgrowth,[1],significantly delayed tumor outgrowth
same,tumor outgrowth effect of sildenafil with anti-CD8 depleting antibody,"C26GM colon carcinoma [8]; anti-CD8 clone 2.43 on days 0, 2, 4, 6",completely abolished by CD8^+ depletion
same,tumor outgrowth,C26GM colon carcinoma [8]; sildenafil alone,statistically significant reduction in tumor outgrowth
CC(=O)Oc1ccccc1C(=O)Oc1cccc(CO[N+](=O)[O-])c1 [nitroaspirin],anti-tumor efficacy as single agent,tumor,no anti-tumor efficacy when used alone
same,anti-tumor efficacy as single agent,tumor; listed as nitro-aspirin,ineffective as a single agent
same,efficacy of antitumor vaccines when used as adjuvant,tumor,enhanced the preventive and therapeutic efficacy of antitumor vaccines
same,efficacy of antitumor vaccines when used as adjuvant,tumor; listed as nitro-aspirin,augmented the anti-tumor efficacy of vaccines on established tumors
